Test results published in patent US11672802B2, “Induction of immune tolerance by using methotrexate” (Genzyme Corporation, priority 2011, dated 2023).

How the values were obtained:
[1] = system: anti-mATG IgG; assay: Anti-mATG (anti-rabbit) IgG ELISA titers in mice treated with mATG; assay type: in vivo, C57BL/6 mice; parameters: reduction of anti-mATG antibody responses, area under the effect curves / reduction of anti-mATG IgG titers, area under the effect curves / reduction of anti-mATG IgG titers: concentration or dose not given beside the values
Procedure: The levels of anti-mATG IgG in mouse serum were analyzed by enzyme linked immunosorbent assay (ELISA). […] End-point titers were defined as the […] dilution that averages above an absorbance of 0.100 using Softmax software (Molecular Devices, Sunnyvale, Calif., USA).

[2] = system: splenic B and T cell subsets; assay: Flow cytometry of splenic B and T cell subsets after rhGAA and methotrexate; assay type: in vivo, mice
Procedure: 20 mg/kg of Myozyme® (Genzyme Corporation) was given by tail vein injection once or for 2-6 weekly doses, commencing with the first methotrexate dose. Animals were sacrificed weekly or daily after initiation of treatment. Spleen, mesenteric, and inguinal lymph nodes were collected for flow cytometric analysis of T and B cell subsets and sera was collected for ELISA assays. Spleens were processed between glass slides and red blood cells (RBC) was lysed with lysing buffer purchased from BD Biosciences (catalog#555899) according to the manufacturer's instructions. Lymph nodes were processed between glass slides and washed with phosphate buffered saline (PBS) containing 2% fetal calf serum (FCS). Cells were resuspended in 200 μL of PBS containing 4% fetal bovine serum and 25 μg/mL of total mouse IgG and blocked for 30 minutes at 4° C. Approximately 3 million spleens cells and 1 million lymph node cells were stained with different antibody cocktails and analyzed with a high through put sampler (HTS) on a Becton Dickinson CANTOII flow cytometer. At least 100,000 cell events were acquired within the lymphocyte gate. Anti-mouse antibody cocktails consisted of PE-CD21/35 catalog #552957, FITC-catalog #553138, PE-CD138 catalog #553714, PE-PE-Cy7-CD4 catalog #552775, FITC-CD3e catalog #553062, APC-CD11b catalog #553312, PE-Cy7-IgM catalog #552867, APC-Cy7-CD8 catalog #557654, PE-CD273 (PD-L2) catalog #557796, APC-CD138 catalog #558626, PE-Cy7-CD11b catalog #552850, PE-CD93 (early B lineage) catalog #558039, APC-CD69 catalog #560689, Pe-Cy7-CD24 catalog #560536, FITC-CD1d catalog #553845, APC-CD5 catalog #550035, and Percp-Cy5-7AAD catalog #559925, all purchased from BD Pharmingen. FITC-FoxP3 intracellular staining kit was purchased from eBioscience. Pacific Blue (PB)-CD25 catalog #102022, PB-CD23 catalog #101616 and PB-CD86 catalog #105022 were purchased from BioLegend. Analysis of lymphocyte subsets was performed with FCS express version 3 software provided by De Novo Software. Percentages were generated with the batch processing option and absolute numbers were calculated according to the cell counts obtained. Spleen and lymph node cell counts were obtained with a Beckman Coulter Vi-cell XR cell viability analyzer according to the manufacturer's instructions.
C57BL/6 (Jackson Laboratories) or E4GAAKO (Charles River) mice 8-12 weeks old were given 5 mg/kg of methotrexate (Calbiochem catalog #454125) by intraperitoneal injection for 1 cycle (3 consecutive daily doses) commencing with treatment with 20 mg/kg of rhGAA. For the 1D11 studies, animals were treated with intraperitoneal injections of 5 mg/kg of either 1D11 or 13C4 (Genzyme Corporation) 3 time per week, every other day, commencing with rhGAA and methotrexate treatment. Animals were sacrificed on day 6 or 7 post rhGAA initiation depending on the mouse strain. Spleens were prepared in single cell suspension and loaded onto the RoboSep (STEMCELL technologies) instrument according to the manufacturer's instructions and subjected to B cell negative selection. Purified B cells were seeded at 500,000 cells per well in 96 well round bottom plates (Costar catalog #3799) and either incubated with no stimulation or with 10 μg/mL of LPS (Sigma catalog #L5014) for 48 hours at 37° C. All wells received Monensin (BD Bioscience catalog #554724) according to the manufacturer's instructions. Cells were allowed to incubate for at least 4 hours at 37° C. Samples were transferred to V bottom wells (USA Scientific catalog #651201) and spun at 1200 rpm for 5 minutes at 4° C. Cells were resuspended in 200 μL of PBS containing 4% fetal bovine serum and 25 μg/ml of total mouse IgG and blocked for 30 minutes at 4° C.

[3] = system: anti-alemtuzumab IgG; assay: Anti-alemtuzumab IgG ELISA titers in huCD52 Tg mice
From the text: Alemtuzumab-related studies employed human CD52 (huCD52) transgenic (Tg) mice between 6-12 weeks of age that were obtained from Charles River Laboratories/Genzyme Corp. Mice were housed and maintained in accordance with the Guide for Care and Use of Laboratory Animals and under American Association for Accreditation of Laboratory Animals Care I accreditation and all animal protocols used in these studies were approved by the Institutional Animals Care and Use Committee.
Monoclonal antibody alemtuzumab was administered intravenously as either a single injection of 0.5 mg/kg or in either a three or five day cycle of 0.5 mg/kg/day.
Methotrexate (Calbiochem catalog #454125) was administered at 0.5, 1.0, 2.0 or 5 mg/kg by intraperitoneal injection for 1-3 cycles, where each cycle equals either three, six or seven consecutive days of injection depending upon the experiment.
Mice were bled 4-6 days following alemtuzumab treatment and specific anti-alemtuzumab IgG was measured by ELISA. Briefly, 96-well plates (Corning Inc., Corning, N.Y., USA) were coated overnight with 3 μg/ml of alemtuzumab in PBS (pH 7.2). Following blocking with 0.1% BSA in PBS, serial dilutions of serum were added in duplicate to alemtuzumab-coated plates and incubated at 37° C. for 1 h. The plates were washed, and horseradish peroxidase-conjugated goat anti-mouse IgG secondary antibody (Southern Biotechnology Associates, Birmingham, Ala., USA) was added and allowed to incubate for 1 h at 37° C. Following a final wash, TMB substrate (BioFx, Owings Mills, Md., USA) was added and allowed to develop for 15 min at room temperature. The reaction was stopped by the addition of 1 N HCl and absorbance values were read at 450/650 nm on an ELISA plate reader (Molecular Devices, Sunnyvale, Calif., USA). End-point titers were defined as the antilog of the logarithmically transformed sample dilution interpolated at an absorbance value of 0.2 using Excel software (Microsoft, Redmond, Wash., USA).

[4] = system: anti-rhGAA antibody titers; assay: Adoptive transfer of splenic B cells from tolerized mice; assay type: in vivo, C57BL/6 mice; details: donors treated with Myozyme and a single cycle of methotrexate
Procedure: C57BL/6 mice were obtained from Jackson Laboratories and were housed under specific pathogen free conditions. Control mice were given a single intravenous injection of rhGAA at 20 mg/kg. Tolerized mice were given a single intravenous injection of rhGAA at 20 mg/kg, in addition to three daily consecutive methotrexate intraperitoneal injections of 0.5 mg. Spleens were harvested on day six after the initial rhGAA injection, from both donor groups, and processed into pooled single cell suspensions. Cells were washed and filtered through a […]. Cells were then enriched for B cells using a StemCell Technologies RoboSep cell separation system, and resuspended to allow for a 200 μl intravenous injection. Tolerized and non-tolerized recipient groups received either a high cell 10×10^6 or a low cell 5×10^6 concentration via intravenous injections. Control groups were given rhGAA only, or rhGAA and methotrexate (single cycle of three consecutive daily MTX injections). All groups received weekly intravenous rhGAA 20 mg/kg injections, and were retro-orbitally bled biweekly for 16 weeks, into BD Vacutainer serum separator tubes. Serum was removed and stored below −20° C. until used for ELISA. Anti-rhGAA antibody titers were determined using ELISA, read on a SpectraMax M2, and calculated using Softmax to extrapolate titer value. […]

[5] = Myozyme and methotrexate vs Myozyme alone
[6] = methotrexate 1 mg/kg/day, three alemtuzumab treatment cycles

## CN(Cc1cnc2nc(N)nc(N)c2n1)c1ccc(C(=O)N[C@@H](CCC(=O)O)C(=O)O)cc1 [methotrexate, Methotrexate]
[1]; a single course of methotrexate
  reduction of anti-mATG IgG titers: > 95%
[1]; mATG and a single cycle of methotrexate vs mATG alone
  anti-mATG (anti-rabbit IgG) titer lower than with mATG alone: 100 fold
[1]; methotrexate 5 mg/kg ip six consecutive days, mATG 25 mg/kg x2, 3 days apart, through eight weeks
  suppression of anti-mATG IgG responses, area under the effect curves: 95%
[1]; single course of methotrexate, mATG re-challenge after eight weeks rest
  reduction of anti-mATG IgG titers, area under the effect curves: 99%
[1]; single cycle of methotrexate around first of five monthly mATG treatments
  anti-mATG IgG titer: approximately 50,000
[1]; single cycle of methotrexate within first week of a protein therapy, over many months of dosing (summary statement)
  long-lived reduction in ADA: greater than 95%
[1]; single cycle regimen, five monthly mATG (FIG. 4C)
  reduction of anti-mATG IgG titers, area under the effect curves: 98%
[1]; three cycle regimen, five monthly mATG (FIG. 4C)
  reduction of anti-mATG IgG titers, area under the effect curves: 69%
[1]; three cycle regimen, mATG re-challenge after eight weeks rest
  reduction of anti-mATG IgG titers, area under the effect curves: 85%
[1]; three cycles of methotrexate 5 mg/kg with first three monthly mATG treatments
  anti-mATG antibody titers: 816,000
[1]; three cycles of methotrexate, five monthly mATG (FIG. 4A)
  reduction of anti-mATG antibody responses, area under the effect curves: 79%
[2]; [5]
  IL-10, TGFbeta and FoxP3 mean fluorescence intensity in multiple cell subsets: statistically significant increases
  number of B10 B cells expressing IL-10: increased
[2]; following methotrexate treatment with rhGAA
  activated B cell subsets (marginal zone, follicular, transitional 2 and 3): significantly increased
[2]; methotrexate and Myozyme
  numbers of FoxP3+ B cells: increase
[2]; methotrexate vs Myozyme alone
  absolute cell numbers of IL-10, TGF-beta and FoxP3 expressing transitional 2, transitional 3 and follicular B cells: increased
[2]; methotrexate-tolerized animals
  numbers of TGF-beta-expressing B10 B cells: increased
[2]; seven and eight days following Myozyme treatment
  B10 regulatory B cell population: significant increases
[2]; two cycles of Myozyme and methotrexate
  activated T helper, T cytotoxic and T regulatory cell populations: largely unchanged
[3]; methotrexate 1 mg/kg, single three-dose cycle, five monthly alemtuzumab 0.5 mg/kg
  reduction of anti-alemtuzumab responses: 88%
[3]; [6]
  mice in which titers were controlled: 7 of the 8
  reduction of anti-alemtuzumab titers: 79%
[3]; methotrexate 2 mg/kg/day, three alemtuzumab treatment cycles
  reduction of ADA, area under the effect curves: 98%
[3]; methotrexate 5 mg/kg, single three-dose cycle, five monthly alemtuzumab 0.5 mg/kg
  reduction of anti-alemtuzumab IgG responses: 99%
[3]; three daily doses 5 mg/kg/day methotrexate, 24 hours after fifth monthly alemtuzumab dose
  anti-alemtuzumab antibody titers: reduced
[4]
  transfer of immune tolerance to Myozyme in naive hosts by total splenic B cells: could transfer immune tolerance
